Entries after “also recorded” stand apart in the source; their conditions may differ.
How the values were obtained:
[1] = system: ARPE-19 cells; experiment: ATP release assay (ATPlite luminescence); type: cell-based, human; details: high glucose + cytokines, 24 h, compared to high glucose and cytokines
Method: (§1) Human adult retinal pigmented epithelial cells (ARPE-19; American Type Culture Collection, Manassas, Va.) were cultured in Dulbecco's Modified Eagle Medium Nutrient Mixture F-12 medium (DMEM-F12; Thermofisher Scientific Inc., USA) supplemented with 10% foetal bovine serum (FBS; Invitrogen) and a 1× antibiotics and antimycotics mixture (AA, 100× stock) at 37° C. in a humidified 5% C02 incubator. Cells were grown in T75 flasks and the medium was changed twice per week until confluent and ready for experimentation.
At passage 6-12, cells were plated at 2.5×10^5 cells/mL in 8-well chamber slides for immunohistochemical studies or 24-well plates for ATP release assay and cytometric bead array analysis. Once confluent, the culture medium was changed to treatments in serum-free DMEM-F12 containing 1×AA. […]
After 24 h of incubation in treatment media, ATP release was measured in triplicates using 50 μL of culture medium taken from duplicate wells of 24-well plates. […] ATP released into the culture medium was measured using the ATPlite Luminescence ATP Detection Assay System as per manufacturer instructions (PerkinElmer, USA). ATP release (%) in Peptide5 treated cultures (treated group) were calculated relative to cells treated with high glucose and cytokines (injury group) using the formula: (OD490 of treated group−OD490 of injury group)/(OD490 of injury group)×100%.

[2] = system: ARPE-19 cells; experiment: VEGF secretion by ARPE-19 cells; type: cell-based, human; details: for VEGF release: high glucose + cytokines + Peptagon, versus basal
Method: as §1
(§2) At passage 6-12, cells were plated at 2.5×10^5 cells/mL in 8-well chamber slides for immunohistochemical studies or 24-well plates for ATP release assay and cytometric bead array analysis. Once confluent, the culture medium was changed to treatments in serum-free DMEM-F12 containing 1×AA. Some cultures were challenged with 15 mM glucose (High glucose (high glucose) group), a combination of pro-inflammatory cytokines 10 ng/mL TNF-α (Peprotech, USA) and 10 ng/mL IL-1β (Peprotech, USA) (Cytokines group), or a combination of high glucose, 10 ng/mL TNF-α and 10 ng/mL IL-1β (high glucose+Cytokines group). The untreated group received a medium change with no additional treatments (Basal group). All assessments were carried out 24 h post-treatment.
(§3) Peptide5 (H-Val-Asp-Cys-Phe-Leu-Ser-Arg-Pro-Thr-Glu-Lys-Thr-OH (SEQ ID NO: 1); China Peptides, China) was administered to cells challenged with high glucose and pro-inflammatory cytokines. Concentration-dependent effects were studied at 5, 10, 25 and 50 μM of […] after 24 h. […] O'Carroll, S J, et al. Connexin43 mimetic peptides reduce swelling, astrogliosis, and neuronal cell death after spinal cord injury. Cell communication & adhesion, 15:27-42 (2008).

[3] = system: connexin 43 hemichannels; details: cited from earlier work
[4] = system: NLRP3 inflammasome complex; experiment: Immunohistochemical labelling and quantification of NLRP3 inflammasome complexes; type: cell-based, human; details: 24 h
Method: At passage 6-12, cells were plated at 2.5×10^5 cells/mL in 8-well chamber slides for immunohistochemical studies or 24-well plates for ATP release assay and cytometric bead array analysis. Once confluent, the culture medium was changed to treatments in serum-free DMEM-F12 containing 1×AA. Some cultures were challenged with 15 mM glucose (High glucose (high glucose) group), a combination of pro-inflammatory cytokines 10 ng/mL TNF-α (Peprotech, USA) and 10 ng/mL IL-1β (Peprotech, USA) (Cytokines group), or a combination of high glucose, 10 ng/mL TNF-α and 10 ng/mL IL-1β (high glucose+Cytokines group). The untreated group received a medium change with no additional treatments (Basal group). All assessments were carried out 24 h post-treatment. After 24 h of incubation in treatment media, cells were fixed with 4% paraformaldehyde for 10 min and permeabilised with 0.1% Triton X-100 in phosphate buffer saline (PBS) for 10 min. Cells were then incubated with mouse anti-NLRP3 (1:100; Abcam, USA) at 4° C. overnight followed by washing in PBS three times for 15 min. Goat anti-mouse Cy3 (1:500; Jackson Immuno Research, USA) secondary antibodies were applied to the slides and incubated at room temperature for 3 h. […] For NLRP3 immunohistochemical analysis, four images were analysed per well and the entire experiment was repeated three times. […] The number of NLPR3 spots were counted for each image.

[5] = system: ARPE-19 cells; experiment: Cytokine and chemokine measurement by Cytometric Bead Array in ARPE-19 incubation medium; type: cell-based, human
Method: as §1, §2, §3
Soluble cytokines and chemokines in the ARPE-19 incubation medium were measured simultaneously using multiplexed bead-based immunoassays, Cytometric Bead Array (CBA, BD Biosciences, USA). Three tests of 50 μL volume was taken from duplicate cultures in 24-well plates after 24 h and transferred into a 96-well plate to be used for the CBA assay. The analysis included six tests per group. The assay was conducted according to the manufacturer's instructions. Briefly, a ten-point standard curve ranging from 0 to 5000 pg/mL for each cytokine was prepared using the cytokine standard provided in each kit. The cytokines measured were human soluble CD54 (sICAM-1, cat #560269, BD Biosciences, USA), IL-6 (cat #558276), IL-8 (cat #558227), and MCP-1 (cat #558287). Samples and cytokine standards were incubated in the capture bead mixture for 1 h and Phycoerythrin (PE)-conjugated antibodies against each cytokine were added to the sample-bead mixture for 2 h incubation at room temperature. All buffers used were from the CBA human soluble protein master buffer kit (cat #558265, BD Biosciences, USA). Beads were washed and analysed using an Accuri C6 flow cytometer (BD Biosciences, USA). Mean fluorescence intensity for each bead cluster was converted into cytokine concentrations based on the ten-point standard curve using FCAP Array™ software (BD version 3.1) as described previously (O'Carroll et al., 2015).

[6] = target: Cx43 carboxy-terminal domain (Rattus norvegicus, UniProt P08050); details: low pH conditions; Verma et al. 2009, 2010; cited from earlier work
[7] = high glucose + cytokines (10 ng/mL TNF-α, 10 ng/mL IL-1β), Peptagon 5, 10, 25, 50 μM, 24 h
[8] = high glucose + cytokines, 5, 10, 25, 50 μM, 24 h
[9] = high glucose + cytokines, Peptagon 25 μM, 24 h
[10] = 10 nM exogenous ATP alone, mean ± SD
[11] = high glucose + cytokines + Peptagon 25 μM + ATP 10 nM, 24 h

Cx43 carboxy-terminal domain, sequence (P08050 whole entry, the tested form may be a part): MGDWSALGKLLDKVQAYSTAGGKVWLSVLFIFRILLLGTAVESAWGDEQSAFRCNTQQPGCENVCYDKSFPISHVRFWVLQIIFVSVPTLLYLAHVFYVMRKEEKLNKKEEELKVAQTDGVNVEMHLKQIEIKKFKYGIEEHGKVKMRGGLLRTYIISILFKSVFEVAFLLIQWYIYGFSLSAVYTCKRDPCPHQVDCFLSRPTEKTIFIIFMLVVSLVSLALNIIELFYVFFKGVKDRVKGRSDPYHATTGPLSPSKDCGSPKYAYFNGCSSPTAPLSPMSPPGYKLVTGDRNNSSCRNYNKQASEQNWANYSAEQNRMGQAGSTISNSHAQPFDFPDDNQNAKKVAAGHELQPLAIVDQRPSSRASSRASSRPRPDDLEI

## H-Val-Asp-Cys-Phe-Leu-Ser-Arg-Pro-Thr-Glu-Lys-Thr-OH (H-VDCFLSRPTEKT-OH) [Peptagon]
[1]
  ATP release: significantly reduced
[1]; listed as Peptide5
  ATP release: prevented
[2]; 24 h
  VEGF release: restored VEGF secretion back to basal levels
[2]; 24 h, listed as Peptide5
  VEGF release: completely arrested
[3]; 5, 10, 25 and 50 μM, O'Carroll et al. 2008
  connexin 43 hemichannel block versus gap junction coupling: block connexin 43 hemichannels with minimal effect on gap junction cell-cell coupling
[3]; O'Carroll et al., 2008
  dose dependent action on hemichannels and gap junctions: lower doses blocking gap junction hemichannel opening and higher doses uncoupling gap junctions between cells
[4]; high glucose + inflammatory cytokines
  NLRP3 inflammasome assembly: blocked inflammasome assembly
[5]; [7]
  IL-6 secretion: significantly reduced
  IL-8 secretion: significantly reduced
  MCP-1 secretion: significantly reduced
  sICAM-1 secretion: significantly reduced; also recorded: decrease
[5]; [8]
  concentration dependence of decrease in IL-6, IL-8 and MCP-1 secretion: slight trend towards a concentration-dependent decrease; also recorded: concentration-dependent manner
  concentration dependence of decrease in sICAM-1 secretion: all peptide concentrations had the same effect
[5]; [9]
  IL-6 secretion: reduced secretion
  IL-8 secretion: reduced secretion
  MCP-1 secretion: reduced secretion
  sICAM-1 secretion: reduced secretion

## Nc1ncnc2c1ncn2[C@@H]1O[C@H](COP(=O)(O)OP(=O)(O)OP(=O)(O)O)[C@@H](O)[C@H]1O [ATP]
[2]; 10 nM exogenous ATP alone
  change in VEGF secretion compared to basal conditions: no change
[2]; [10]
  VEGF secretion in response to extracellular ATP: 56.62 ± 8.94 pg/mL
[2]; high glucose + cytokines + Peptagon + exogenous ATP, 24 h
  effect of exogenous ATP on Peptagon hemichannel block effect on VEGF release: completely overrode; also recorded: negated hemichannel blocker-mediated protection against VEGF release
[4]; high glucose + cytokines + Peptagon + 10 nM ATP
  effect of exogenous ATP on Peptagon block of NLRP3 inflammasome assembly: overrode the hemichannel blocker treatment
[5]; 10 nM exogenous ATP alone
  change in IL-6 secretion compared to basal conditions: no change
  change in IL-8 secretion compared to basal conditions: no change
  change in sICAM-1 secretion compared to basal conditions: no change
[5]; [10]
  IL-6 secretion in response to extracellular ATP: 8.22 ± 2.25 pg/mL
  IL-8 secretion in response to extracellular ATP: 67.70 ± 11.44 pg/mL
  MCP-1 secretion in response to extracellular ATP: 230.72 ± 37.08 pg/mL
  sICAM-1 secretion in response to extracellular ATP: 0 pg/mL
[5]; 10 nM exogenous ATP alone, p≤0.0001
  change in MCP-1 release compared to basal conditions: decrease
[5]; [11]
  effect of exogenous ATP on Peptagon-mediated protection against IL-6 release: back towards injury levels; also recorded: reversed
  effect of exogenous ATP on Peptagon-mediated protection against IL-8 release: back towards injury levels; also recorded: reversed
  effect of exogenous ATP on Peptagon-mediated protection against MCP-1 release: back towards injury levels; also recorded: reversed
  effect of exogenous ATP on Peptagon-mediated protection against sICAM-1 release: did not reach statistical significance

## RRNYRRNY [linear peptide RRNYRRNY targeting the Cx43 carboxy-terminal domain]
[6]
  Cx43-based gap junction closure: prevent Cx43-based gap junction closure under low pH conditions

— patent publication US11344603B2, “Cytokine modulation” (AUCKLAND UNISERVICES LIMITED, priority 2017, dated 2022)
